# Earlier results as cited in patent US20260034192A1 (University of Saskatchewan, priority 2022, published 2026).
# Square brackets hold non-standard residues; d marks the D form. Peptide text beside a SMILES is read from it. dPhe(4-NH2) = Nc1ccc(C[C@@H](N)C(=O)O)cc1; dPhe(4-Cl) = N[C@H](Cc1ccc(Cl)cc1)C(=O)O; Phe(4-NH2) = Nc1ccc(C[C@H](N)C(=O)O)cc1; d2Nal = N[C@H](Cc1ccc2ccccc2c1)C(=O)O; Lys(iPr) = CC(C)NCCCC[C@H](N)C(=O)O; d3Pal = N[C@H](Cc1cccnc1)C(=O)O
# Test system: dominant follicle
# Conditions: acyline-treated animals, multiple injections from just before ovulation; cited from earlier work
smiles,measurement,value
"CC(=O)Nc1ccc(C[C@H](NC(=O)[C@H](CO)NC(=O)[C@@H](Cc2cccnc2)NC(=O)[C@@H](Cc2ccc(Cl)cc2)NC(=O)[C@@H](Cc2ccc3ccccc3c2)NC(C)=O)C(=O)N[C@H](Cc2ccc(NC(C)=O)cc2)C(=O)N[C@@H](CC(C)C)C(=O)N[C@@H](CCCCNC(C)C)C(=O)N2CCC[C@H]2C(=O)N[C@H](C)C(N)=O)cc1 [acyline, N-acetyl-3-(2-naphthyl)-D-alanyl-4-chloro-D-phenylalanyl-3-(3-pyridyl)-D-alanyl-L-seryl-4-acetamido-L-phenylalanyl-4-acetamido-D-phenylalanyl-L-leucyl-N6-isopropyl-L-lysyl-L-prolyl-D-alaninamide] (Ac-[d2Nal][dPhe(4-Cl)][d3Pal]S[Phe(4-NH2)](Ac)[dPhe(4-NH2)](Ac)L[Lys(iPr)]P[dA]-NH2)",Maximum diameter of dominant follicle,7.7 mm
